According to patent US9695155B2, “Herbicidal substituted pyrimidinyloxy benzene compounds” (E. I. DU PONT DE NEMOURS AND COMPANY, priority 2013, dated 2017):

Experiments:
velvetleaf = test: Test E preemergence; format: in vivo, Abutilon theophrasti; settings: for Velvetleaf plant response rating: scale 0 to 100 (0 no effect, 100 complete control)
From the text: (§1) Seeds of plant species selected from corn (Zea mays), soybean (Glycine max), velvetleaf (Abutilon theophrasti), lambsquarters (Chenopodium album), wild poinsettia (Euphorbia heterophylla), palmer pigweed (Amaranthus palmeri), waterhemp (common waterhemp, Amaranthus rudis), surinam grass (Brachiaria decumbens), large (Lg) crabgrass (Digitaria sanguinalis), Brazilian crabgrass (Digitaria horizontalis), fall panicum (Panicum dichotomiflorum), giant foxtail (Setaria faberii), green foxtail (Setaria viridis), goosegrass (Eleusine indica), johnsongrass (Sorghum halepense), ragweed (common ragweed, Ambrosia elatior), barnyardgrass (Echinochloa crus-galli), sandbur (southern sandbur, Cenchrus echinatus), arrowleaf sida (Sida rhombifolia), Italian ryegrass (Lolium multiflorum), dayflower (Virginia (VA) dayflower, Commelina virginica), field bindweed (Convolvulus arvensis), morningglory (Ipomoea coccinea), nightshade (eastern black nightshade, Solanum ptycanthum), kochia (Kochia scoparia), yellow nutsedge (Cyperus esculentus), cocklebur (common cocklebur, Xanthium strumarium), smartweed (ladysthumb smartweed, and hairy beggarticks (Bidens pilosa), were planted into a silt loam soil and treated preemergence with test chemicals formulated in a non-phytotoxic solvent mixture which included a surfactant.
(§2) At the same time, plants from these crop and weed species and also horseweed (Canada horseweed, Conyza canadensis), waterhemp_RES1, (ALS & Triazine resistant common waterhemp, Amaranthus rudis), and waterhemp_RES2, (ALS & HPPD resistant common waterhemp, Amaranthus rudis) were planted in pots containing Redi-Earth® planting medium (Scotts Company, 14111 Scottslawn Road, Marysville, Ohio 43041) comprising spaghnum peat moss, vermiculite, wetting agent and starter nutrients were treated with postemergence applications of test chemicals formulated in the same manner. Plants ranged in height from 2 to 18 cm for postemergence treatments (1- to 4-leaf stage). Treated plants and controls were maintained in a greenhouse for 14 to 21 days, after which time all species were compared to controls and visually evaluated. Plant response ratings, summarized in Table E, are based on a scale of 0 to 100 where 0 is no effect and 100 is complete control. A dash (-) response means no test result.

nightshade = test: Test E preemergence; format: in vivo, Solanum ptycanthum; settings: for Nightshade plant response rating: scale 0 to 100 (0 no effect, 100 complete control)
From the text: as §1, §2

barnyardgrass [1] = test: Test E preemergence; format: in vivo, Echinochloa crus-galli; settings: for Barnyardgrass plant response rating: scale 0 to 100 (0 no effect, 100 complete control)
From the text: as §1, §2

waterhemp = test: Test E preemergence; format: in vivo, Amaranthus rudis; settings: for Waterhemp plant response rating: scale 0 to 100 (0 no effect, 100 complete control)
From the text: as §1, §2

corn = test: Test E preemergence; format: in vivo, Zea mays; settings: for Corn plant response rating: scale 0 to 100 (0 no effect, 100 complete control)
From the text: as §1, §2

soybean = test: Test E preemergence; format: in vivo, Glycine max; settings: for Soybean plant response rating: scale 0 to 100 (0 no effect, 100 complete control)
From the text: as §1, §2

large (Lg) crabgrass = test: Test E preemergence; format: in vivo, Digitaria sanguinalis; settings: for Crabgrass, Large plant response rating: scale 0 to 100 (0 no effect, 100 complete control)
From the text: as §1, §2

field bindweed = test: Test E preemergence; format: in vivo, Convolvulus arvensis; settings: for Field Bindweed plant response rating: scale 0 to 100 (0 no effect, 100 complete control)
From the text: as §1, §2

giant foxtail = test: Test E preemergence; format: in vivo, Setaria faberii; settings: for Foxtail, Giant plant response rating: scale 0 to 100 (0 no effect, 100 complete control)
From the text: as §1, §2

galium = test: Test A postemergence; format: in vivo, Galium aparine
Summary of the method: (§3)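 Scoring: eye-based comparison with untreated controls, 0 for no effect through 100 for complete control, at about day 10. Treatments: directed soil spray preemergence; foliar spray postemergence on 2–10 cm plants at the one- to two-leaf stage. Medium: loam soil with sand.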

barnyardgrass [2] = test: Test C flooded paddy test; format: in vivo, Echinochloa crus-galli; settings: Flood, scale 0 to 100 (0 no effect, 100 complete control), 13 to 15 days
Summary of the method: (§4)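 Ratings were visual and made relative to untreated controls after 13 to 15 greenhouse days.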

kochia = test: Test A preemergence; format: in vivo, Kochia scoparia
Summary of the method: as §3

ragweed = test: Test A postemergence; format: in vivo, Ambrosia elatior
Summary of the method: as §3

sedge, umbrella = test: Test C flooded paddy test; format: in vivo, Cyperus difformis; settings: Flood, scale 0 to 100 (0 no effect, 100 complete control), 13 to 15 days
Summary of the method: as §4

[3] = 8 g ai/ha, scale 0 to 100, 0 is no effect, 100 is complete control
[4] = 125 g ai/ha, scale 0 to 100, 0 no effect, 100 complete control
[5] = 125 g ai/ha, 0 to 100 scale where 0 is no effect and 100 is complete control
[6] = 500 g ai/ha, 0 to 100 scale where 0 is no effect and 100 is complete control
[7] = 31 g ai/ha, 0 to 100 scale, 0 no effect, 100 complete control
[8] = 125 g ai/ha, 0 to 100 scale, 0 no effect, 100 complete control

Clc1cnc(Oc2ccccc2-n2cc(Br)cn2)nc1 [Compound 7, 2-[2-(4-bromo-1H-pyrazol-1-yl)phenoxy]-5-chloropyrimidine]
Plant response rating, Velvetleaf (velvetleaf; [3]): 20
Velvetleaf plant response rating (velvetleaf; 16 g ai/ha): 50
Velvetleaf plant response rating (velvetleaf; 31 g ai/ha): 65
Velvetleaf plant response rating (velvetleaf; 62 g ai/ha): 98
Plant response rating, Velvetleaf (velvetleaf; [4]): 100
Plant response rating, Nightshade (nightshade; [3]): 0
Nightshade plant response rating (nightshade; 16 g ai/ha): 65
Nightshade plant response rating (nightshade; 31 g ai/ha): 98
Nightshade plant response rating (nightshade; 62 g ai/ha): 98
Plant response rating, Nightshade (nightshade; [4]): 98
Plant response rating, Barnyardgrass (barnyardgrass [1]; 8 g ai/ha, preemergence, scale 0 to 100, 0 is no effect, 100 is complete control): 0
Barnyardgrass plant response rating (barnyardgrass [1]; 16 g ai/ha, preemergence): 0
Barnyardgrass plant response rating (barnyardgrass [1]; 31 g ai/ha, preemergence): 0
Plant response rating, Barnyardgrass (barnyardgrass [1]; Preemergence, 62 g ai/ha, scale 0 to 100, 0 no effect, 100 complete control): 0
Plant response rating, Barnyardgrass (barnyardgrass [1]; preemergence, 125 g ai/ha, scale 0 to 100, 0 no effect, 100 complete control): 0
Plant response rating, Waterhemp (waterhemp; [3]): 95
Waterhemp plant response rating (waterhemp; 16 g ai/ha): 100
Waterhemp plant response rating (waterhemp; 31 g ai/ha): 100
Waterhemp plant response rating (waterhemp; 62 g ai/ha): 100
Plant response rating, Waterhemp (waterhemp; [4]): 100
Plant response rating, Corn (corn; [3]): 0
Corn plant response rating (corn; 16 g ai/ha): 0
Corn plant response rating (corn; 31 g ai/ha): 0
Corn plant response rating (corn; 62 g ai/ha): 0
Plant response rating, Corn (corn; [4]): 0
Plant response rating, Soybean (soybean; [3]): 0
Soybean plant response rating (soybean; 16 g ai/ha): 0
Soybean plant response rating (soybean; 31 g ai/ha): 0
Soybean plant response rating (soybean; 62 g ai/ha): 40
Plant response rating, Soybean (soybean; [4]): 50
Plant response rating, Crabgrass, Large (large (Lg) crabgrass; [3]): 0
Crabgrass, Large plant response rating (large (Lg) crabgrass; 16 g ai/ha): 0
Crabgrass, Large plant response rating (large (Lg) crabgrass; 31 g ai/ha): 70
Crabgrass, Large plant response rating (large (Lg) crabgrass; 62 g ai/ha): 75
Plant response rating, Crabgrass, Large (large (Lg) crabgrass; [4]): 98
Plant response rating, Field Bindweed (field bindweed; [3]): 0
Field Bindweed plant response rating (field bindweed; 16 g ai/ha): 0
Field Bindweed plant response rating (field bindweed; 31 g ai/ha): 0
Field Bindweed plant response rating (field bindweed; 62 g ai/ha): 0
Plant response rating, Field Bindweed (field bindweed; [4]): 0
Plant response rating, Foxtail, Giant (giant foxtail; [3]): 15
Foxtail, Giant plant response rating (giant foxtail; 16 g ai/ha): 20
Foxtail, Giant plant response rating (giant foxtail; 31 g ai/ha): 20
Foxtail, Giant plant response rating (giant foxtail; 62 g ai/ha): 40
Plant response rating, Foxtail, Giant (giant foxtail; [4]): 90

CCCOc1cnn(-c2c(C#N)cccc2Oc2ncc(Cl)cn2)c1 [Compound 150]
Galium plant response rating (galium; [5]): 90
Plant response rating, Galium (galium; [6]): 100
Plant response rating, Barnyardgrass (barnyardgrass [2]; 31 g ai/ha): 0
Plant response rating, Barnyardgrass (barnyardgrass [2]; 62 g ai/ha): 0
Plant response rating, Barnyardgrass (barnyardgrass [2]; 125 g ai/ha): 0
Plant response rating, Barnyardgrass (barnyardgrass [2]; 250 g ai/ha): 0
Plant response rating, Kochia (kochia; [5]): 100
Kochia plant response rating (kochia; [6]): 100
Ragweed plant response rating (ragweed; [5]): 20
Plant response rating, Ragweed (ragweed; [6]): 60
Plant response rating, Sedge, Umbrella (sedge, umbrella; 31 g ai/ha): 0
Plant response rating, Sedge, Umbrella (sedge, umbrella; 62 g ai/ha): 50
Plant response rating, Sedge, Umbrella (sedge, umbrella; 125 g ai/ha): 75
Plant response rating, Sedge, Umbrella (sedge, umbrella; 250 g ai/ha): 85

Fc1cccc(Oc2ncc(Cl)cn2)c1-n1cc(OCC(F)(F)F)cn1 [Compound 270]
Plant response rating, Galium (galium; [7]): 60
Plant response rating, Galium (galium; [8]): 90
Plant response rating, Barnyardgrass (barnyardgrass [2]; 31 g ai/ha): 0
Plant response rating, Barnyardgrass (barnyardgrass [2]; 62 g ai/ha): 30
Plant response rating, Barnyardgrass (barnyardgrass [2]; 125 g ai/ha): 45
Plant response rating, Barnyardgrass (barnyardgrass [2]; 250 g ai/ha): 60
Plant response rating, Kochia (kochia; 31 g ai/ha, 0 to 100 scale where 0 is no effect and 100 is complete control, visual, approximately 10 days): 80
Kochia plant response rating (0 to 100 scale) (kochia; 125 g ai/ha): 100
Plant response rating, Ragweed (ragweed; [7]): 0
Plant response rating, Ragweed (ragweed; [8]): 20
Plant response rating, Sedge, Umbrella (sedge, umbrella; 31 g ai/ha): 0
Plant response rating, Sedge, Umbrella (sedge, umbrella; 62 g ai/ha): 25
Plant response rating, Sedge, Umbrella (sedge, umbrella; 125 g ai/ha): 60
Plant response rating, Sedge, Umbrella (sedge, umbrella; 250 g ai/ha): 95
